In patent US20140227731A1, “DRUG FOR ANALYSIS OF WATER TRANSPORT FUNCTION OF MEMBRANE PROTEIN IN BIOLOGICAL TISSUE” (TAIYO NIPPON SANSO CORPORATION, priority 2013, published 2014):

System: radish
Assay: Permeation of red food coloring water into round radish slices
Procedure: Using radish that was cut into round slices with thicknesses of 6-10 cm, the bottom faces of the round slices were immersed in red food coloring water for 1-16 hours, As the red food coloring, Red No. 102 (chemical name: 7-hydroxy-8-(4-sulfonaphthylazo)-1,3-naphthylenedisulfonic acid=trisodium salt=1½ hydrate) was used.

O.O.O.O=S(=O)([O-])c1cc(S(=O)(=O)[O-])c2c(N=Nc3ccc(S(=O)(=O)[O-])c4ccccc34)c(O)ccc2c1.O=S(=O)([O-])c1cc(S(=O)(=O)[O-])c2c(N=Nc3ccc(S(=O)(=O)[O-])c4ccccc34)c(O)ccc2c1.[Na+].[Na+].[Na+].[Na+].[Na+].[Na+] [Red No. 102, 7-hydroxy-8-(4-sulfonaphthylazo)-1,3-naphthylenedisulfonic acid=trisodium salt=1½ hydrate]
permeation of red food coloring into radish tissue (bottom face immersed, one hour elapsed): had soaked into the connective tissue at the periphery of the round slices from the bottom face
sites permeated by red food coloring water (immersed for 16 hours): not found anywhere other than the connective tissue
